The values below come from patent US10577349B2 (Sanford Burnham Prebys Medical Discovery Institute, priority 2015, dated 2020).

One experiment has as its system A375. As to the kind of experiment: 48 h Cytotoxicity A375. Type of experiment: cell-based. The conditions noted are these: Homo sapiens, A-375.
Experiment [1] has as its target HCV cap-dependent translation. Description: In vitro translation assay, FF-HCV-Ren construct, cap-dependent (FF luciferase). It is filed as biochemical, rabbit reticulocyte lysates. Put shortly:
(§1)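 In a cell-free system, lysate-driven translation of FF-IRES-Ren RNA (0.1 μg per well, 2 h, 30° C) follows 1 h compound pre-treatment at room temperature. Dual-Glo readings separate cap-dependent (FF) from IRES-mediated (Ren) output.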

Experiment [2] has as its target EmCV Cap-dependent translation. As to the kind of experiment: In vitro translation assay, FF-EmCV-Ren construct, cap-dependent (FF luciferase). It is filed as biochemical, rabbit reticulocyte lysates. Put shortly:
as §1

The target in experiment [3] is EmCV Cap-independent translation. As to the kind of experiment: In vitro translation assay, FF-EmCV-Ren construct, cap-independent (Ren luciferase). Type of experiment: biochemical, rabbit reticulocyte lysates. Put shortly: as §1
The target of experiment [4] is HCV cap-independent translation. Description: In vitro translation assay, FF-HCV-Ren construct, cap-independent (Ren luciferase). Type of experiment: biochemical, rabbit reticulocyte lysates. Put shortly: as §1

The IC50 is the concentration that inhibits the measured activity by half. For the compound `Cc1ccnc(-c2c(C(=O)/C=C/c3cncc(F)c3)c(=O)[nH]c3ccc(Cl)cc23)c1` [Compound 93, 3-[(2E)-3-(5-fluoro(3-pyridyl))prop-2-enoyl]-6-chloro-4-(4-methyl(2-pyridyl))hydroquinolin-2-one], the IC50 was < 2 µM in the experiment on A375; > 20 µM in experiment [1]; > 20 µM in experiment [2]; 10 to 20 µM in experiment [3]; > 20 µM in experiment [4].
Take `Cc1ccnc(-c2c(C(=O)/C=C/c3ccccn3)c(=O)[nH]c3ccc(Cl)cc23)c1` [Compound 94, 3-((2E)-3-(2-pyridyl)prop-2-enoyl)-6-chloro-4-(4-methyl(2-pyridyl))hydroquinolin-2-one]: the IC50 is 2 to 10 µM with A375; > 20 µM in experiment [1]; > 20 µM in experiment [2]; > 20 µM in experiment [3]; > 20 µM in experiment [4].
For the compound `Cc1cncc(-c2c(C(=O)/C=C/c3ccccn3)c(=O)[nH]c3ccc(Cl)cc23)c1` [Compound 96, 3-((2E)-3-(2-pyridyl)prop-2-enoyl)-6-chloro-4-(5-methyl(3-pyridyl))hydroquinolin-2-one], the IC50 was 2 to 10 µM in the experiment on A375; > 20 µM in experiment [1]; 10 to 20 µM in experiment [2]; 2 to 10 µM in experiment [3]; 10 to 20 µM in experiment [4].
As to `COc1cncc(-c2c(C(=O)/C=C/c3cncc(F)c3)c(=O)[nH]c3ccc(Cl)cc23)c1` [Compound 97, 3-[(2E)-3-(5-fluoro(3-pyridyl))prop-2-enoyl]-6-chloro-4-(5-methoxy(3-pyridyl))hydroquinolin-2-one], the IC50 in the experiment on A375 was 2 to 10 µM; in experiment [1] it was 10 to 20 µM; in experiment [2] it was 2 to 10 µM; in experiment [3] it was 2 to 10 µM; in experiment [4] it was 2 to 10 µM.
On to `COc1cncc(-c2c(C(=O)/C=C/c3ccccn3)c(=O)[nH]c3ccc(Cl)cc23)c1` [Compound 98, 3-((2E)-3-(2-pyridyl)prop-2-enoyl)-6-chloro-4-(5-methoxy(3-pyridyl))hydroquinolin-2-one], for which the IC50 in the experiment on A375 fell in the range of 2 to 10 µM; in experiment [1], 10 to 20 µM; in experiment [2], 10 to 20 µM; in experiment [3] it was 10 to 20 µM; in experiment [4], 10 to 20 µM.
With `O=C(/C=C/c1cncc(F)c1)c1c(-c2cncc(F)c2)c2cc(Cl)ccc2[nH]c1=O` [Compound 99, 3-[(2E)-3-(5-fluoro(3-pyridyl))prop-2-enoyl]-6-chloro-4-(5-fluoro(3-pyridyl))hydroquinolin-2-one], the IC50 in the experiment on A375 lay within 2 to 10 µM; in experiment [1], 10 to 20 µM; in experiment [2] it was 10 to 20 µM; in experiment [3], 2 to 10 µM; in experiment [4], 2 to 10 µM.
For the compound `O=C(/C=C/c1ccccn1)c1c(-c2cncc(F)c2)c2cc(Cl)ccc2[nH]c1=O` [Compound 100, 3-((2E)-3-(2-pyridyl)prop-2-enoyl)-6-chloro-4-(5-fluoro(3-pyridyl))hydroquinolin-2-one], the half-maximal inhibitory concentration (IC50) with A375 lay in the range of 2 to 10 µM; in experiment [1], 10 to 20 µM; in experiment [2], 10 to 20 µM; in experiment [3], 10 to 20 µM; in experiment [4], 10 to 20 µM.
For the compound `O=C(/C=C/c1cncc(F)c1)c1c(-c2cncc(Cl)c2)c2cc(Cl)ccc2[nH]c1=O` [Compound 101, 3-[(2E)-3-(5-fluoro(3-pyridyl))prop-2-enoyl]-6-chloro-4-(5-chloro(3-pyridyl))hydroquinolin-2-one], the IC50 with A375 lay within 2 to 10 µM; in experiment [1], 10 to 20 µM; in experiment [2], 2 to 10 µM; in experiment [3], 10 to 20 µM; in experiment [4], 10 to 20 µM.
On to `O=C(/C=C/c1ccccn1)c1c(-c2cncc(Cl)c2)c2cc(Cl)ccc2[nH]c1=O` [Compound 102, 3-((2E)-3-(2-pyridyl)prop-2-enoyl)-6-chloro-4-(5-chloro(3-pyridyl))hydroquinolin-2-one], for which the IC50 is 2 to 10 µM in the experiment on A375; 10 to 20 µM in experiment [1]; 10 to 20 µM in experiment [2]; 10 to 20 µM in experiment [3]; 10 to 20 µM in experiment [4].
Take `O=C(/C=C/c1cncc(F)c1)c1c(-c2cncc(Br)c2)c2cc(Cl)ccc2[nH]c1=O` [Compound 103, (E)-4-(5-Bromo-pyridin-3-yl)-6-chloro-3-[3-(5-fluoro-pyridin-3-yl)-acryloyl]-1H-quinolin-2-one]: the concentration for half-maximal inhibition (IC50) in the experiment on A375 lay within 2 to 10 µM; in experiment [1] it was 10 to 20 µM; in experiment [2] it was 2 to 10 µM; in experiment [3] it was 2 to 10 µM; in experiment [4] it was 2 to 10 µM.
For the compound `O=C(/C=C/c1ccccn1)c1c(-c2cncc(Br)c2)c2cc(Cl)ccc2[nH]c1=O` [Compound 104, 3-((2E)-3-(2-pyridyl)prop-2-enoyl)-4-(5-bromo(3-pyridyl))-6-chlorohydroquinolin-2-one], the IC50 in the experiment on A375 was 2 to 10 µM; in experiment [1] it was 10 to 20 µM; in experiment [2], 2 to 10 µM; in experiment [3], 2 to 10 µM; in experiment [4] it was 2 to 10 µM.
For `N#Cc1cncc(-c2c(C(=O)/C=C/c3cncc(F)c3)c(=O)[nH]c3ccc(Cl)cc23)c1` [Compound 105, 5-{3-[(2E)-3-(5-fluoro(3-pyridyl))prop-2-enoyl]-6-chloro-2-oxo-4-hydroquinolyl}pyridine-3-carbonitrile], the IC50 was in the range of 2 to 10 µM in the experiment with A375; 10 to 20 µM in experiment [1]; 10 to 20 µM in experiment [2]; 10 to 20 µM in experiment [3]; 10 to 20 µM in experiment [4].
For `N#Cc1cncc(-c2c(C(=O)/C=C/c3ccccn3)c(=O)[nH]c3ccc(Cl)cc23)c1` [Compound 106, 5-[3-((2E)-3-(2-pyridyl)prop-2-enoyl)-6-chloro-2-oxo-4-hydroquinolyl]pyridine-3-carbonitrile], the 50% inhibitory concentration (IC50) in the experiment on A375 was < 2 µM; in experiment [1] it was > 20 µM; in experiment [2], > 20 µM; in experiment [3], 10 to 20 µM; in experiment [4] it was 10 to 20 µM.
In the case of `CCOC(=O)c1cncc(-c2c(C(=O)/C=C/c3ccccn3)c(=O)[nH]c3ccc(Cl)cc23)c1` [Compound 107, Ethyl 5-[3-((2E)-3-(2-pyridyl)prop-2-enoyl)-6-chloro-2-oxo-4-hydroquinolyl]pyridine-3-carboxylate], the IC50 with A375 is 2 to 10 µM; in experiment [1], 10 to 20 µM; in experiment [2], > 20 µM; in experiment [3] it was 10 to 20 µM; in experiment [4], 10 to 20 µM.
In the case of `CN(C)c1ccc(-c2c(C(=O)/C=C/c3ccccn3)c(=O)[nH]c3ccc(Cl)cc23)cc1` [Compound 108, 3-((2E)-3-(2-pyridyl)prop-2-enoyl)-4-[4-(dimethylamino)phenyl]-6-chlorohydroquinolin-2-one], the IC50 was in the range of 2 to 10 µM with A375; 10 to 20 µM in experiment [1]; 2 to 10 µM in experiment [2]; 2 to 10 µM in experiment [3]; 2 to 10 µM in experiment [4].
As for `CN(C)c1ccc(-c2c(C(=O)/C=C/c3cncc(F)c3)c(=O)[nH]c3ccc(Cl)cc23)cc1` [Compound 109, 3-[(2E)-3-(5-fluoro(3-pyridyl))prop-2-enoyl]-4-[4-(dimethylamino)phenyl]-6-chlorohydroquinolin-2-one], the IC50 (in the experiment with A375; in experiment [1]; in experiment [2]; in experiment [3]; in experiment [4]) was 2 to 10 µM in each case.
Turning to `O=C(/C(Br)=C\c1cncc(F)c1)c1c(-c2ccccc2)c2cc(Cl)ccc2[nH]c1=O` [Compound 111, 3-[(2E)-2-bromo-3-(5-fluoro(3-pyridyl))prop-2-enoyl]-6-chloro-4-phenylhydroquinolin-2-one], the concentration for half-maximal inhibition (IC50) (in the experiment on A375; in experiment [1]; in experiment [2]; in experiment [3]; in experiment [4]) was 2 to 10 µM each time.
Turning to `Cc1ccnc(C#CC(=O)c2c(-c3ccccc3)c3cc(Cl)ccc3[nH]c2=O)c1` [Compound 112, 6-Chloro-3-[3-(4-methyl-pyridin-2-yl)-propynoyl]-4-phenyl-1H-quinolin-2-one], the half-maximal inhibitory concentration (IC50) (in the experiment on A375; in experiment [1]; in experiment [2]; in experiment [3]; in experiment [4]) was > 20 µM each time.
On to `O=C(/C=C/c1ccc(Cl)s1)c1c(-c2ccccc2)c2cc(Cl)ccc2[nH]c1=O` [Compound 113, 6-Chloro-3-[3-(5-chloro-thiophen-2-yl)-acryloyl]-4-phenyl-1H-quinolin-2-one], for which the IC50 (with A375; in experiment [1]; in experiment [2]; in experiment [3]; in experiment [4]) was 2 to 10 µM in each case.
For `Cc1ccc2[nH]c(/C=C/C(=O)c3c(-c4ccccc4)c4cc(Cl)cnc4[nH]c3=O)nc2c1` [Compound 114, (E)-6-chloro-3-(3-(5-methyl-1H-benzo[d]imidazol-2-yl)acryloyl)-4-phenyl-1,8-naphthyridin-2(1H)-one], the IC50 was 2 to 10 µM with A375; > 20 µM in experiment [1]; 2 to 10 µM in experiment [2]; 10 to 20 µM in experiment [3]; 10 to 20 µM in experiment [4].
Regarding `O=C(/C=C/c1cncc(Cl)c1)c1c(-c2ccccc2)c2cc(Cl)ccc2[nH]c1=O` [Compound 115, (E)-6-chloro-3-(3-(5-chloropyridin-3-yl)acryloyl)-4-phenylquinolin-2(1H)-one], the IC50 was < 2 µM with A375; 2 to 10 µM in experiment [1]; 2 to 10 µM in experiment [2]; 2 to 10 µM in experiment [3]; 2 to 10 µM in experiment [4].
